Measurements taken from patent US20250066816A1, “ELECTROPORATION ENHANCERS FOR CRISPR-CAS SYSTEMS” (SIGMA-ALDRICH CO. LLC, priority 2021, published 2025).

Test system: human HEK293 cells
Assay: High fidelity SpCas9 RNP nucleofection, HEKSite4 target site, HEK293 cells, editing frequency by NGS
Format: cell-based
Settings: at least one of the three dosages tested (Table 10), FIG. 6
Description: A high fidelity SpCas9 protein (Catalog No. CAS9 Plus) and a synthetic single guide RNA (sgRNA) with the spacer sequence of 5′-[…]-3′ (SEQ ID NO: 46) targeting the human HEKSite4 locus were purchased from MilliporeSigma. Pentosan polysulfate sodium salt with a formula of (C5H6Na2O10S2)n was purchased from Selleckchem (Catalog No. S3500). A pentosan polysulfate solution was prepared by dissolving the chemical in water at 50 mg/ml. The molecular structural unit of the polyanionic polymer is as follows: […]
Genomic DNA extracts from transfected cells were prepared using QuickExtract Solution. Targeted genomic region was PCR amplified with NGS primers using JumpStart™ Taq ReadyMix™ for Quantitative PCR Kit (MilliporeSigma) with the following cycling condition: 98° C./2 m; 98° C./15 s, 62° C./30 s, and 72° C./45 s for 34 cycles; 72° C./5 m.
Primary PCR products were then reamplified with Illumina index primers using JumpStart™ Taq ReadyMix™ for Quantitative PCR Kit (MilliporeSigma) with the following cycling condition: 95° C./3 m; 95° C./30 s, 55° C./30 s, and 72° C./30 s for 8 cycles; 72° C./5 m. Indexed PCR products were purified with Select-a-Size DNA Clean & Concentrator kit (Zymo) and quantified by PicoGreen (ThermoFisher). […] The FASTQ files for each sample were analyzed for genome editing frequency. […]

## Collagen from rat tail
  level of editing efficiency versus the control buffer: significantly higher
